# Laboratory results from patent US7880007B2, “Bicyclic substituted phenyl piperidine modulators of muscarinic receptors” (Vertex Pharmaceuticals Incorporated, priority 2004, dated 2011).
# Tests used:
# Format in all cases: cell-based
# M1 muscarinic receptor = molecular target: T1, M1 muscarinic receptor (Homo sapiens, UniProt P11229); test: Functional mobilization of intracellular calcium (FLIPR), M1-CHO cells; settings: for Emax: 100% efficacy = maximum response obtained with the Carbachol control; for M1 Activity: M1-CHO cells, calcium mobilization (FLIPR)
# T1 construct: expressed in transfected cells; host or cells: CHO (M1-CHO)
# T1 sequence (P11229 1-460): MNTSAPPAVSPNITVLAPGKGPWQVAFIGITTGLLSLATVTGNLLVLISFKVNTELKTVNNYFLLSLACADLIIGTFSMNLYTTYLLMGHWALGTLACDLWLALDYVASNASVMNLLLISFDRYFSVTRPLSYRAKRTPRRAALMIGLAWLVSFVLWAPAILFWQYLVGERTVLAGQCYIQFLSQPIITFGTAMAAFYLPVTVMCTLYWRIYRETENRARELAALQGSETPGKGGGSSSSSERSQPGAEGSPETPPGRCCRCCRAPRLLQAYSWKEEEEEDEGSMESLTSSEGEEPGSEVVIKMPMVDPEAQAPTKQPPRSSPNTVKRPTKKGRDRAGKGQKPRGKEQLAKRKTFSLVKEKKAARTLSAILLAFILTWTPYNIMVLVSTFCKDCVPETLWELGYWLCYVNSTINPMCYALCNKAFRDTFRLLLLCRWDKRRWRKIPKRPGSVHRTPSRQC
# Method in brief: (§1)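 Calcium mobilisation read by FLIPR over 60 s (ex 488/em 540 nm) in recombinant muscarinic CHO lines loaded with calcium dye plus 1 mM probenecid. Compounds tested as agonists alone, or as inhibitors against EC80 carbachol after 15 min pre-incubation or co-addition; 0.5% DMSO; efficacy scaled to carbachol maximal response.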
# M2 muscarinic receptor = molecular target: T2, M2 muscarinic receptor (Homo sapiens, UniProt P08172); test: Functional mobilization of intracellular calcium (FLIPR), M2-CHO cells; settings: for Emax: 100% efficacy = maximum response obtained with the Carbachol control; for M2 Activity: M2-CHO cells, calcium mobilization (FLIPR)
# T2 construct: expressed in transfected cells; host or cells: CHO (M2-CHO)
# T2 sequence (P08172 1-466): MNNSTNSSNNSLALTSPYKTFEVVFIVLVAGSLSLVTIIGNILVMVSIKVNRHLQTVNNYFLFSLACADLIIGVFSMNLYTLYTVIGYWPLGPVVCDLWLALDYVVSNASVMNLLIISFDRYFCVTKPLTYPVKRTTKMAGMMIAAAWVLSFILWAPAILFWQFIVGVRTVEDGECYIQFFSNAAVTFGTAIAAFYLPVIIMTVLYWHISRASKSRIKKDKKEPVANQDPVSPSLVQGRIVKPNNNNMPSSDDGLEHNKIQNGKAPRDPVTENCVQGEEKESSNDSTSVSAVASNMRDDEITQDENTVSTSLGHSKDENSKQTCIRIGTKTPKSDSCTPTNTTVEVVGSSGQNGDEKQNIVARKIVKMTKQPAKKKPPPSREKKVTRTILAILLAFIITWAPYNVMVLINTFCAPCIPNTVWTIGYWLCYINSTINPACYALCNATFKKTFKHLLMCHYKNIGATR
# Method in brief: as §1
# M3 muscarinic receptor = molecular target: T3, M3 muscarinic receptor (Homo sapiens, UniProt P20309); test: Functional mobilization of intracellular calcium (FLIPR), M3-CHO cells; settings: for Emax: 100% efficacy = maximum response obtained with the Carbachol control; for M3 Activity: M3-CHO cells, calcium mobilization (FLIPR)
# T3 construct: expressed in transfected cells; host or cells: CHO (M3-CHO)
# T3 sequence (P20309 whole entry): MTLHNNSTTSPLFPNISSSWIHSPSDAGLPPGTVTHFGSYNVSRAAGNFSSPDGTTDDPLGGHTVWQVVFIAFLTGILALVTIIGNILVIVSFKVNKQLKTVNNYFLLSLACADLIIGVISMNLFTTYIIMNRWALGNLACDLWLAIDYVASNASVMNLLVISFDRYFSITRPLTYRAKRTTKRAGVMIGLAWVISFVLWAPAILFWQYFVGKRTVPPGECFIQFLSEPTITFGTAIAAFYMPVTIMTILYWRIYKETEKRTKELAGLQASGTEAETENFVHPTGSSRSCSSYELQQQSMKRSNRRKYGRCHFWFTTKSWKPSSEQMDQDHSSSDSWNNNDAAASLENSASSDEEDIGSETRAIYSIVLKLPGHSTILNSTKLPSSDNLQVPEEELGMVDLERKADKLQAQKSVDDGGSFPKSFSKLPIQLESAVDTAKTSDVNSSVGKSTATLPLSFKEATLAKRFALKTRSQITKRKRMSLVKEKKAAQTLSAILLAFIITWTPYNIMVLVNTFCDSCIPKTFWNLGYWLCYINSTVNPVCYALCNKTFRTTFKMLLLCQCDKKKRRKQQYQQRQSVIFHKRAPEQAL
# Method in brief: as §1
# M4 muscarinic receptor = molecular target: T4, M4 muscarinic receptor (Homo sapiens, UniProt P08173); test: Functional mobilization of intracellular calcium (FLIPR), M4-CHO cells; settings: for Emax: 100% efficacy = maximum response obtained with the Carbachol control; for M4 Activity: M4-CHO cells, calcium mobilization (FLIPR)
# T4 construct: expressed in transfected cells; host or cells: CHO (M4-CHO)
# T4 sequence (P08173 1-479): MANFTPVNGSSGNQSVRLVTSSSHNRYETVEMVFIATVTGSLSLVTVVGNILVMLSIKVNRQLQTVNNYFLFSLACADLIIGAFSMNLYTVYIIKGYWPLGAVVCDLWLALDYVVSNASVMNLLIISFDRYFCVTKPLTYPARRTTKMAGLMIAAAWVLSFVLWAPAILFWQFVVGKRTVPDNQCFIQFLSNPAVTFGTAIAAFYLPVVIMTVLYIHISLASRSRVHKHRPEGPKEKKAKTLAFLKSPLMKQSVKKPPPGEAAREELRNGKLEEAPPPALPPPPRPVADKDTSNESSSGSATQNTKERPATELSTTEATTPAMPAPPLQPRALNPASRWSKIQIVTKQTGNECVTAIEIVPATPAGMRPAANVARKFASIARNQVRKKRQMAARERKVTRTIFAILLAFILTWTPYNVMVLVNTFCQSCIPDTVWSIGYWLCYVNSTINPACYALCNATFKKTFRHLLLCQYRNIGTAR
# Method in brief: as §1
SMILES,Emax (M1 muscarinic receptor),Emax (M2 muscarinic receptor),Emax (M3 muscarinic receptor),Emax (M4 muscarinic receptor),M1 Activity (M1 muscarinic receptor),M2 Activity (M2 muscarinic receptor),M3 Activity (M3 muscarinic receptor),M4 Activity (M4 muscarinic receptor)
CCOC(=O)N1C2CCC1CC(N1CCC(c3cc(-c4ccc(CC#N)cc4)ccc3OC)CC1)C2 (centres unmarked) [Compound 254],25 to 100%,< 25%,< 25%,25 to 100%,+ (activity was measured to be greater than 5.0 μM),+ (activity was measured to be greater than 5.0 μM),+ (activity was measured to be greater than 5.0 μM),++ (activity was measured to be from 1.0 μM to 5.0 μM)
COc1ccc(Cl)cc1C1(F)CCN(CC2CCCCC2)CC1 [Compound 257],< 25%,< 25%,< 25%,25 to 100%,+ (activity was measured to be greater than 5.0 μM),+ (activity was measured to be greater than 5.0 μM),+ (activity was measured to be greater than 5.0 μM),+ (activity was measured to be greater than 5.0 μM)
CCOC(=O)N1CCC(N2CCC(F)(c3cc(F)ccc3OC)CC2)CC1 [Compound 262],25 to 100%,< 25%,< 25%,25 to 100%,+++ (activity was measured to be less than 1.0 μM),+ (activity was measured to be greater than 5.0 μM),+ (activity was measured to be greater than 5.0 μM),+++ (activity was measured to be less than 1.0 μM)
COc1ccc(-c2ccc(CC#N)cc2)cc1C1CCN(C2CCOCC2)CC1 [Compound 263],< 25%,< 25%,< 25%,< 25%,+ (activity was measured to be greater than 5.0 μM),+ (activity was measured to be greater than 5.0 μM),+ (activity was measured to be greater than 5.0 μM),+ (activity was measured to be greater than 5.0 μM)

# Now from value to compound, other results behind:
Emax (M1 muscarinic receptor),Emax (M2 muscarinic receptor),Emax (M3 muscarinic receptor),Emax (M4 muscarinic receptor),SMILES,M1 Activity (M1 muscarinic receptor),M2 Activity (M2 muscarinic receptor),M3 Activity (M3 muscarinic receptor),M4 Activity (M4 muscarinic receptor)
25 to 100%,< 25%,25 to 100%,25 to 100%,COc1ccccc1C1CCN(C2CCC3CCCCC3C2)CC1 (centres unmarked) [Compound 255],+ (activity was measured to be greater than 5.0 μM),+ (activity was measured to be greater than 5.0 μM),+ (activity was measured to be greater than 5.0 μM),++ (activity was measured to be from 1.0 μM to 5.0 μM)
25 to 100%,< 25%,< 25%,25 to 100%,CCS(=O)(=O)c1ccc(-c2ccc(OC)c(C3CCN([C@H]4C[C@H]5CC[C@H]4C5)CC3)c2)cc1 [Compound 258],+ (activity was measured to be greater than 5.0 μM),+ (activity was measured to be greater than 5.0 μM),+ (activity was measured to be greater than 5.0 μM),++ (activity was measured to be from 1.0 μM to 5.0 μM)
25 to 100%,< 25%,< 25%,25 to 100%,Fc1ccccc1C1CCN(C2C[C@H]3CC[C@H]2C3)CC1 (some centres unmarked) [Compound 259],,,,
25 to 100%,< 25%,< 25%,25 to 100%,CCc1ccc(OC)c(C2CCN([C@@H]3C[C@H]4CC[C@H]3C4)CC2)c1 [Compound 260],+++ (activity was measured to be less than 1.0 μM),+ (activity was measured to be greater than 5.0 μM),+ (activity was measured to be greater than 5.0 μM),+++ (activity was measured to be less than 1.0 μM)
25 to 100%,25 to 100%,< 25%,25 to 100%,Cc1ccc(C(F)(F)F)cc1C1CCN(C2C[C@H]3CC[C@H]2C3)CC1 (some centres unmarked) [Compound 261],+++ (activity was measured to be less than 1.0 μM),+ (activity was measured to be greater than 5.0 μM),+ (activity was measured to be greater than 5.0 μM),++ (activity was measured to be from 1.0 μM to 5.0 μM)
